This is an account of results in patent US10858323B2, “HDAC inhibitors for the treatment of diabetic peripheral neuropathy” (REGENACY PHARMACEUTICALS, LLC, priority 2015, dated 2020).

Structures are written as SMILES.

Data set [1] concerns Rats. Briefly: Tail Flick test. It is filed as in vivo, rat. The note with it: BID for 4 days or single dose 1 h before test. As to the method: A Tail Flick test was performed every hour in a time period of four hours after treatments.
Data are presented in FIG. 4 as the latency time in seconds until the animals flicked their tails in response to the heat source. Morphine and Gabapentin were used as positive controls.

Data set [2] has as its system streptozotocin hyperglycemic rats, dorsal root ganglia and sciatic nerves. Kind of data set: Metabolomic study in diabetic neuropathic pain model. The format is in vivo, rat. The note with it: 10 mg/kg twice per day, 11 days. As to the method: Hyperglycemia was induced in rats with an injection of streptozotocin (60 mg/kg). Ten days later neuropathic pain was confirmed using a von Frey filament test for tactile allodynia. In this test, filaments of increasing diameter were applied to the plantar surface of the rear paw and the force necessary to precipitate a paw withdrawal is determined by the smallest filament needed to invoke a response. […] In addition, three naïve rats and three rats that had tactile allodynia at day 10 were sacrificed and the dorsal root ganglia and sciatic nerves were dissected and frozen as control samples.
Dorsal root ganglia and sciatic nerves were sent to Human Metabolome Technologies for analysis of metabolic intermediates. Extracts from these samples were analyzed by capillary electrophoresis/mass spectrometry to measure the level of charged metabolites. In addition, sciatic nerve extracts were analyzed by liquid chromatography/mass spectrometry to measure the level of non-charged metabolites.

Data set [3] concerns streptozotocin-induced diabetic rats (STZ rats). Kind of data set: Von Frey test of tactile allodynia in STZ diabetic rats. It is filed as in vivo, rat. Particulars: for tactile allodynia / pain threshold (von Frey): STZ rats, oral dosing days 11-21. The procedure:
Diabetes was induced in male SD rats by IV dosing of STZ (60 mg/kg) on […]. Blood glucose level (BGL) of above 300 mg/dl was observed on study day 3, following STZ dosing, which maintained throughout the study period.
Gabapentin (150 mg/kg) was used as a positive control. Tactile allodynia was measured on the indicated days during dosing and once on day 24, three days after dosing was stopped. Vehicle treated animals experienced low mechanical threshold throughout the treatment period (days 11-21) and also 3 days after the last dose (day 24).

Data set [4] in a line: Blood brain barrier penetration. Particulars: in vivo.
Data set [5] has as its system Dorsal root ganglion neurons (DRGNs). Briefly: Acetyl-tubulin fluorescent ICC of axonal microtubules. It is filed as cell-based, rat. The procedure: DRGNs were treated with Compound 2 on coverslips, fixed and stained with antibodies against acetyl-tubulin and total tubulin (fluorescent ICC) to visualize and quantitate tubulin acetylation in axonal microtubules. […] Acetyl-tubulin signal was normalized to total tubulin signal.

For data set [6] the test system is unchanged. Kind of data set: Tubulin and histone acetylation by western blot of whole cell extracts. It is filed as cell-based, rat. Particulars: 24 hours treatment. A general note: In western blotting, separated proteins are transferred to a membrane and probed.
Data set [7] relates to primary rat dorsal root ganglion (DRG) neurons. Kind of data set: Mitochondrial axonal transport live imaging under high glucose. It is filed as cell-based. The note with it: 200 mM glucose and 500 nM compound, 24 h. The procedure:
To investigate the effects of hyperglycemia on axonal transport live imaging was used to measure mitochondrial transport in primary rat dorsal root ganglion cells. Primary rat dorsal root ganglion (DRG) neurons (Lonza) were cultured for 5-7 days according to the vendor's protocol. The day before the imaging session cells were infected using CellLight Mitochondria-GFP (BacMam 2.0-based reagent, ThermoFisher Scientific) to fluorescently label mitochondria. […] Media in control wells was replaced with fresh media containing 25 mM glucose (control). Cells were allowed to incubate under these conditions for 24 h. […] Imaging was performed using Zeiss 3i system (Intelligent Imaging Innovations) in temperate controlled environment (37 C). Mitochondria were visualized using FITC filter. Time lapse images were acquired every 2 seconds over the course of 2 min and analyzed using Fiji (ImageJ). MtrackJ plugin was used to manually track mitochondrial movements and calculate parameters such as total distance traveled by each mitochondria. Total distance traveled by a population of mitochondria in each condition was plotted as a cumulative frequency plot. Data presented is a pool of 5 independent experiments.

Data set [8] concerns the target HDAC1 (Homo sapiens (Human), UniProt Q13547). Kind of data set: HDAC enzyme assay (HDAC1). It is filed as biochemical.
Data set [9] deals with HDAC3 (Homo sapiens (Human), UniProt O15379). Kind of data set: HDAC enzyme assay (HDAC3). It is filed as biochemical.
Data set [10] addresses HDAC2 (Homo sapiens (Human), UniProt Q92769). Kind of data set: HDAC enzyme assay (HDAC2). The note with it: read-out: HDAC2 IC50.
The target in data set [11] is HDAC6 (Homo sapiens (Human), UniProt Q9UBN7). Kind of data set: HDAC enzyme assay (HDAC6). The format is biochemical.
HDAC6, sequence (Q9UBN7 whole entry): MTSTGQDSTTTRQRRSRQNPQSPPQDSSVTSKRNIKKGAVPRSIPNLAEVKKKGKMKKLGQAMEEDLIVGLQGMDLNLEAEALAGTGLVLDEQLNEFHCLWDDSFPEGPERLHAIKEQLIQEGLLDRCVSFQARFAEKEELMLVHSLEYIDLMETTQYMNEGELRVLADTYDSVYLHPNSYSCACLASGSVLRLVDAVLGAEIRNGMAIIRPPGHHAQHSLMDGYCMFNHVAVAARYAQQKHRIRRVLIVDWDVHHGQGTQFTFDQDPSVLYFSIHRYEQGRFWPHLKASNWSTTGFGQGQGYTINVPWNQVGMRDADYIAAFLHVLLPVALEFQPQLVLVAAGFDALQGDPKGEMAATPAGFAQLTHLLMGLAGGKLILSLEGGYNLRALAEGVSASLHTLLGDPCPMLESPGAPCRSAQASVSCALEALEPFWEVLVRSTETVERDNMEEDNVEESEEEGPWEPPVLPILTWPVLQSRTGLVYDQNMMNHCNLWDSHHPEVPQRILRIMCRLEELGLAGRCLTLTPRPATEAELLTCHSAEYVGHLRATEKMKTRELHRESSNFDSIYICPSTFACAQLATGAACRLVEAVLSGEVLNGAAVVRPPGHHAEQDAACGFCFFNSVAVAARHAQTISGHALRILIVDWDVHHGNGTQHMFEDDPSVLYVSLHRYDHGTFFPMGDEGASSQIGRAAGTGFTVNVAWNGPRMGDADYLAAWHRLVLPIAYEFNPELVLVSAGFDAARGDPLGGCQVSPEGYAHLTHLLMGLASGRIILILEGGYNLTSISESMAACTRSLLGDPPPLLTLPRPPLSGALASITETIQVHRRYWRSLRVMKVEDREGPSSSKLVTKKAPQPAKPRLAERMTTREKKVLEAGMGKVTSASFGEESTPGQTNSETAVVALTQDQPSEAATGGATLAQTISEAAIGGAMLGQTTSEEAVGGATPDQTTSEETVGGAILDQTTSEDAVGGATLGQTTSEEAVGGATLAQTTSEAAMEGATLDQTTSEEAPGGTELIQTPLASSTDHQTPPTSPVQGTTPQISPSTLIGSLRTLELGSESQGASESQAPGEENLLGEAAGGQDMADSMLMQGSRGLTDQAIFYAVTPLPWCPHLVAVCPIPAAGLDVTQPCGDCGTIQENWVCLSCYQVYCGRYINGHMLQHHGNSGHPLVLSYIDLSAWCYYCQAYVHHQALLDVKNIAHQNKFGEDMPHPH

HDAC1, sequence (Q13547 whole entry): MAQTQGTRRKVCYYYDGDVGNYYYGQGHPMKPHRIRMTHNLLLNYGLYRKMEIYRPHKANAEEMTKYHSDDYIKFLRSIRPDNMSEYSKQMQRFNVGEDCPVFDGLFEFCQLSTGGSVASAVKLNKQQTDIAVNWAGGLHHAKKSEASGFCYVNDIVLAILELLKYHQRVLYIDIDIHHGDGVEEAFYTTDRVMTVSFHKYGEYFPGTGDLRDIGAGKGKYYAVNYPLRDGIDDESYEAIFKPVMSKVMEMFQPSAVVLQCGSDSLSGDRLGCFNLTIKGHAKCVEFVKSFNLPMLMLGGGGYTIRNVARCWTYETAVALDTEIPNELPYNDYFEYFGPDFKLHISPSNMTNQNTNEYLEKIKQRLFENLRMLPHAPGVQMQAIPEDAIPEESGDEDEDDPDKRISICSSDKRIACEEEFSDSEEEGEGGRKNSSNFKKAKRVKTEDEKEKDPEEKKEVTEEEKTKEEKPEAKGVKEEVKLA
HDAC2, sequence (Q92769 whole entry): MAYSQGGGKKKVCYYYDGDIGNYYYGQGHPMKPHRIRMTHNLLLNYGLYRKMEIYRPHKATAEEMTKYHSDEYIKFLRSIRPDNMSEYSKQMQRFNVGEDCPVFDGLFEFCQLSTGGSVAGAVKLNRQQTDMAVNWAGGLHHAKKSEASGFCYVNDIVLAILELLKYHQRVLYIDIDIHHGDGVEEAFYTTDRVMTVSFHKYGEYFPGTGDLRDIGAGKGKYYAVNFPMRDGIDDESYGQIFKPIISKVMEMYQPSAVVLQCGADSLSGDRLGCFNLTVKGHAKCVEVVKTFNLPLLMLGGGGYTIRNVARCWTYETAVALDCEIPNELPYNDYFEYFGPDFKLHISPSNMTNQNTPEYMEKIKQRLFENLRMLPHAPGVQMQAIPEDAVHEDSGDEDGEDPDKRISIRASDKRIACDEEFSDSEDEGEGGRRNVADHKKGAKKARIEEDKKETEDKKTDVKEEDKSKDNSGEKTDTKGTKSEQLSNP
HDAC3, sequence (O15379 whole entry): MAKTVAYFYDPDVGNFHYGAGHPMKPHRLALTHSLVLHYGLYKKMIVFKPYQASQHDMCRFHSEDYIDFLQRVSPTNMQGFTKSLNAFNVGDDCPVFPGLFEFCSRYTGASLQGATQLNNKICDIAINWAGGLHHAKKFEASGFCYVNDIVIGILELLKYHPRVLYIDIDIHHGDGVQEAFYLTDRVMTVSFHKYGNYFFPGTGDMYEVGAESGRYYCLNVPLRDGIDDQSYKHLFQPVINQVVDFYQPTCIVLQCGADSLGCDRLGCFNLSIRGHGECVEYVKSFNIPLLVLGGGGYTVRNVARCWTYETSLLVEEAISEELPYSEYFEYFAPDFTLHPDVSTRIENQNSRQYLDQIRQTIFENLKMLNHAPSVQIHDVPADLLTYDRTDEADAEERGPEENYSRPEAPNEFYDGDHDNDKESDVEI
HDAC3, sequence (Q9Y618 395-489 partner): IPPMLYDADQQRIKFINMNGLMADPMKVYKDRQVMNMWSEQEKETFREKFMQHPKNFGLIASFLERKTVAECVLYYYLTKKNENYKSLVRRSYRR

As to `O=C(NO)c1cnc(NC2(c3ccccc3)CC2)nc1` [Compound 1, N-hydroxy-2-((1-phenylcyclopropyl)amino)pyrimidine-5-carboxamide], the “increase of latency time in Tail Flick test vs vehicle control” value in data set [1] is “not effective”. In addition, the “metabolic changes incl. acyl-carnitines (AC 16:2, AC 18:2)” value in [2] is “normalized many of the metabolic changes, including the changes in acyl-carnitines”. Besides, the “tactile allodynia / pain threshold (von Frey)” value in [3] is “reversed tactile allodynia in STZ rats in a dose dependent manner and restored the pain threshold in these rats to almost normal levels”. In addition, the “persistence of effect on pain threshold after drug withdrawal” value in [3] (day 24, three days after dosing was stopped) was “persisted even after the drug was withdrawn”. The “blood brain barrier penetration” value in data set [4] is listed as “penetrates the blood brain barrier”.
For the compound `O=C(CCCCCCNC(=O)c1cnc(N(c2ccccc2)c2ccccc2)nc1)NO` [Compound 2, 2-(diphenylamino)-N-(7-(hydroxyamino)-7-oxoheptyl)pyrimidine-5-carboxamide], the “acetylation of axonal microtubules (acetyl-tubulin normalized to total tubulin)” value in data set [5] is “increases acetylation of axonal microtubules”. In data set [6] (at up to 1 uM), the “histone acetylation (western blot)” value is on record as “Minimal histone acetylation increase”. Moreover, the “tubulin acetylation (western blot)” value in data set [6] (whole cell extracts) is reported as “induced an increase in tubulin acetylation in a dose-dependent matter”. In addition, the “increase of latency time in Tail Flick test vs vehicle control” value in data set [1] is “not effective (except in the group that received Compound 2 at 30 mg/kg BID for 4 days)”. Also, the “mitochondrial movement (total distance traveled)” value in data set [7] is “restores normal pattern of mitochondrial movement”. Moreover, the “tactile allodynia / pain threshold (von Frey)” value in data set [3] is “reversed tactile allodynia in STZ rats in a dose dependent manner and restored the pain threshold in these rats to almost normal levels”. The “blood brain barrier penetration” value in data set [4] was “does not penetrate the blood brain barrier very well”.
Turning to `COc1ccc(C(F)(F)F)cc1CNc1ncc(C(=O)NO)cn1` [Compound 3, N-hydroxy-2-((2-methoxy-5-(trifluoromethyl)benzyl)amino)pyrimidine-5-carboxamide], the IC50 (usually the concentration that gives 50% inhibition) in [8] is 68 nM; in [9], 105 nM; in data set [10], 82 nM; in [11] it was 2 nM. The “tactile allodynia / pain threshold (von Frey)” value in [3] is “reversed tactile allodynia in STZ rats in a dose dependent manner and restored the pain threshold in these rats to almost normal levels”.
